According to patent publication US11530226B2, “Azepane inhibitors of menin-MLL interaction” (Janssen Pharmaceutica NV, priority 2016, dated 2022):
Counter-ions that a name gives are not always drawn.

What was measured:
[1] = target: T1, terbium chelate-labeled menin / FITC-MBM1 peptide (Menin/MLL) (Homo sapiens, UniProt O00255, T541A); experiment: Menin/MLL homogenous time-resolved fluorescence (HTRF) assay; type: binding; details: read-out: (2) Menin HTRF assay (IC50 (nM))
T1 construct: Menin (a. a. l-610-6×his tag) was labeled with terbium cryptate as follows
T1 sequence (O00255 with tags, fused parts or gaps T541A): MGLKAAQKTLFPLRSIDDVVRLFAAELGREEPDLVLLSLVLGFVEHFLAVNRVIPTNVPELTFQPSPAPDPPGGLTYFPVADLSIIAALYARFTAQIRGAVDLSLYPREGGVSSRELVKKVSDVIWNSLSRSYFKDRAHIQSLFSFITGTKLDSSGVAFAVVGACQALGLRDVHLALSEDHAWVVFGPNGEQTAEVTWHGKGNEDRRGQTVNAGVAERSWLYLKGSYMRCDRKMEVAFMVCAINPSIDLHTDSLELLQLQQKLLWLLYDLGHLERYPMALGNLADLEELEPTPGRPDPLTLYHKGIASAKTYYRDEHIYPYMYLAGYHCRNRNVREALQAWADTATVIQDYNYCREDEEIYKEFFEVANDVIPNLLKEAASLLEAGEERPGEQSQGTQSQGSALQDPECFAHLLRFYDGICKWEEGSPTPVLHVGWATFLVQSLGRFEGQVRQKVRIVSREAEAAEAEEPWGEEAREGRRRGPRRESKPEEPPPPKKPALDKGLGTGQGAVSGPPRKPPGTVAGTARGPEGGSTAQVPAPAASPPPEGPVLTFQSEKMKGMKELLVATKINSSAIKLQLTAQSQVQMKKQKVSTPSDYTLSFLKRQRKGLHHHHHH
Method: 2) Menin/MLL Homogenous Time-Resolved Fluorescence (HTRF) Assay
To an untreated, white 384-well microtiter plate was added 40 nL 200× test compound in DMSO and 4 μL 2× terbium chelate-labeled menin (vide infra for preparation) in assay buffer (40 mM Tris .HCl, pH 7.5, 50 mM NaCl, 1 mM DTT and 0.05% Pluronic F-127). After incubation of test compound and terbium chelate-labeled menin for 5 min at ambient temperature, 4 μL 2×FITC-MBM1 peptide (FITC-P-alanine-SARWRFPARPGT-NH2) in assay buffer was added, the microtiter plate centrifuged at 1000 rpm for 1 min and the assay mixtures incubated for 15 min at ambient temperature. The relative amount of menin ⋅FITC-MBM1 complex present in an assay mixture is determined by measuring the homogenous time-resolved fluorescence (HTRF) of the terbium/FITC donor/acceptor fluorphore pair using a BMG Pherastar plate reader (ex. 337 nm/terbium cm. 490 nm/FITC cm. 520 nm) at ambient temperature. The degree of fluorescence resonance energy transfer (the HTRF value) is expressed as the ratio of the fluorescence emission intensities of the FITC and terbium fluorophores (P^m 520 nm//F^em 490 nm). The final concentrations of reagents in the binding assay are 100 pM terbium chelate-labeled menin, 75 nM FITC-MBM1 peptide and 0.5%) DMSO in assay buffer. Dose-response titrations of test compounds are conducted using an 11 point, three-fold serial dilution scheme, starting typically at 25 μM.
Compound potencies were determined by first calculating % inhibition at each compound concentration according to equation 1: % inhibition=((HC−LC)−(HTRF^compound−LC))/(HC−LC))*100 (Eqn 1)
Where LC and HC are the HTRF values of the assay in the presence or absence of a saturating concentration of a compound that competes with FITC-MBM1 for binding to menin, and HTRF^compound is the measured HTRF value in the presence of the test compound. HC and LC HTRF values represent an average of at least 16 replicates per plate.
Where Bottom and Top are the lower and upper asymptotes of the dose-response curve, respectively, IC50 is the concentration of compound that yields 50% inhibition of signal and h is the Hill coefficient.
Preparation of Terbium cryptate labeling of Menin: Menin (a. a. l-610-6×his tag) was labeled with terbium cryptate as follows. 2 mg of Menin was buffer exchanged into 1× phosphate buffered saline. 16 uM Menin was incubated with 4-fold molar excess NHS-terbium cryptate (Cisbio Bioassays, Bedford, Mass.) for 2 hours at room temperature. The labeled protein was purified away from free label by running the reaction over a Superdex 200 Increase 10/300 GL column at 0.75 ml/min. Peak fractions were collected, aliquoted and frozen at −80° C.

MV-4-1 1 cells (MLL-AF4) = experiment: Proliferation assay (spheroid-like growth, 8 d, live-cell imaging), MV-4-11; type: cell-based, human; details: Homo sapiens, MV4-11, 192 h, MV-4-11 cells, absolute IC50 from AUC of confluence, read-out: (3) Spheroid assay MV-4-11 (IC50 (μM))
Method: The anti-proliferative effect of menin/MLL protein/protein interaction inhibitor test compounds was assessed in human leukemia cell lines. The cell lines MV-4-1 1 and MOLM14 harbor MEL translocations and express the MEL fusion proteins MLL-AF4 and MLL-AF9, respectively, as well as the wildtype protein from the second allele. […] K562 was used as a control cell line containing two MLL wildtype alleles in order to exclude compounds that display general cytotoxic effects.
MV-4-1 1 and MOLM14 were cultured in RPMI-1640 (Sigma Aldrich) supplemented with 10% fetal bovine serum (HyClone), 2 mM L-glutamine (Sigma Aldrich) and 50 μg/ml gentamycin (Gibco). K562 were propagated in RPMI-1640 (Sigma Aldrich) supplemented with 20% fetal bovine serum (HyClone), 2 mM L-glutamine (Sigma Aldrich) and 50 μg/ml gentamycin (Gibco).
In order to assess the anti-proliferative effects, 1,500 MV-4-1 1, 300 MOLM14 or 750 K562 cells were seeded in 200 μl media per well in 96-well round bottom, ultra-low attachment plates (Costar, catalogue number 7007). Cell seeding numbers were chosen based on growth curves to ensure linear growth throughout the experiment. Test compounds were added at different concentrations and the DMSO content was normalized to 0.3%>. Cells were incubated for 8d at 37° C. and 5% C02. Spheroid like growth was monitored in real-time by live-cell imaging (IncuCyteZOOM, Essenbio, 4× objective) acquiring one image every four hours for 8d. Confluence (%) as a measure of spheroid size was determined using an integrated analysis tool.
In order to determine the cumulative effect of the test compounds over time, the area under the curve (AUC) in a plot of confluence against time was calculated. Confluence at the beginning of the experiment (t=0) was used as baseline for the AUC calculation.
Absolute IC50 values were calculated according to the following procedure: % Control=(AUC sample/AUC control)*100 AUC control=mean AUC of control values(cells without compound/DMSO as vehicle control)
A non-linear curve fit was applied using the least squares (ordinary) fit method to the plot of % control versus compound concentration. Based on this, the absolute IC50 value (half maximal inhibitory concentration of the test compound causing an anti-proliferative effect of 50% relative to the vehicle control) was calculated.

Row | Compound | melting point [°C] | IC50 [1] [nM] | IC50 (MV-4-1 1 cells (MLL-AF4)) [µM]
1 | FC(F)(F)Cc1cc2c(N3CCC[C@H](NCc4ccccc4)CC3)ncnc2s1 (as salt: HCl) [Compound 4, (S)-N-benzyl-1-(6-(2,2,2-trifluoroethyl)thieno[2,3-d]pyrimidin-4-yl)azepan-4-amine] | 230 |  | 
2 | Cc1ccc(CNC2CCCN(c3ncnc4sc(CC(F)(F)F)cc34)CC2)cc1 (centres unmarked) (as salt: HCl) [Compound 16] | 262 to 264 |  | 
3 | FC(F)CN[C@@H]1CCCN(c2ncnc3sc(CC(F)(F)F)cc23)CC1 (as salt: hydrochloride) [Compound 5] | 244 |  | 
4 | FC(F)(F)Cc1cc2c(N3CCCC(NCC4CCOCC4)CC3)ncnc2s1 (centres unmarked) (as salt: hydrochloride) [Compound 55] | 110 |  | 
5 | CN(C)CCCCN(Cc1cnn(C)c1)C1CCCN(c2ncnc3sc(CC(F)(F)F)cc23)CC1 (centres unmarked) (as salt: hydrochloride) [Compound 61] | 110 |  | 
6 | CC(C)[C@@H](NC1CCCN(c2ncnc3sc(CC(F)(F)F)cc23)CC1)C1CNC1 (single isomer, unassigned) [Compound 34] |  | 216 | 3.2
7 | CC(C)[C@@H](N[C@H]1CCCN(c2ncnc3sc(CC(F)(F)F)cc23)CC1)C1CNC1 (single isomer, unassigned) [Compound 36] |  | 170 | 2.5
8 | C[C@H]1CCN(c2ncnc3sc(CC(F)(F)F)cc23)CC[C@H]1NCc1ccccc1 (single isomer, unassigned) [Compound 68A] |  | 103 | 1.9
9 | Fc1ccccc1CNC1CCCN(c2ncnc3sc(CC(F)(F)F)cc23)CC1 (centres unmarked) [Compound 8] |  | 64 | 1.6
10 | FC(F)(F)Cc1cc2c(N3CCCC(OCc4ccccc4)CC3)ncnc2s1 (centres unmarked) [Compound 44] |  | 137 | 4.3
11 | OCCN(Cc1ccccc1)C1CCCN(c2ncnc3sc(CC(F)(F)F)cc23)CC1 (centres unmarked) [Compound 50] |  | 185 | 2.3
12 | CN(C)CCCN(Cc1ccccc1)C1CCCN(c2ncnc3sc(CC(F)(F)F)cc23)CC1 (centres unmarked) [Compound 53] |  | 204 | 2.1
13 | Cn1ncc2c1CCC[C@@H]2N[C@@H]1CCCN(c2ncnc3sc(CC(F)(F)F)cc23)CC1 [Compound 65B] |  | 284 | 4.3

Second part, the compound after the results:

Row | melting point [°C] | IC50 [1] [nM] | IC50 (MV-4-1 1 cells (MLL-AF4)) [µM] | Compound
14 | 130 |  |  | FC(F)(F)Cc1cc2c(N3CCC[C@@H](NCc4ccccc4)CC3)ncnc2s1 (as salt: HCl) [Compound 3, (R)N-benzyl-1-(6-(2,2,2-trifluoroethyl)thieno[2,3-d]pyrimidin-4-yl)azepan-4-amine]
15 | 205 |  |  | O=C(NC1CCCN(c2ncnc3sc(CC(F)(F)F)cc23)CC1)C1CC2(CC2)CN1 (centres unmarked) (as salt: hydrochloride) [Compound 10B]
16 | 130 |  |  | CN(C)CCCNC1CCCN(c2ncnc3sc(CC(F)(F)F)cc23)CC1 (centres unmarked) (as salt: hydrochloride) [Compound 62]
17 |  | 40 | 2.1 | FC(F)(F)Cc1cc2c(N3CCC[C@@H](NCc4cccnc4)CC3)ncnc2s1 (single isomer, unassigned) [Compound 29]
18 |  | 186 | 4.45 | FC(F)(F)Cc1cc2c(N3CCC[C@@H](NCc4ccnnc4)CC3)ncnc2s1 (single isomer, unassigned) [Compound 30]
19 |  | 34 | 1.4 | CC(C)[C@H](N[C@@H]1CCCN(c2ncnc3sc(CC(F)(F)F)cc23)CC1)C1CNC1 (single isomer, unassigned) [Compound 31]
20 |  | 27 | 2 | CC(C)[C@H](NC1CCCN(c2ncnc3sc(CC(F)(F)F)cc23)CC1)C1CNC1 (single isomer, unassigned) [Compound 33]
21 |  | 194 | 2.8 | CN(C)CCN(Cc1ccccc1)[C@@H]1CCCN(c2ncnc3sc(CC(F)(F)F)cc23)CC1 (single isomer, unassigned) [Compound 57A]
22 |  | 222 | 4.4 | CN(C)CCN(Cc1ccccc1)[C@H]1CCCN(c2ncnc3sc(CC(F)(F)F)cc23)CC1 (single isomer, unassigned) [Compound 57B]
23 |  | 493 | 5.5 | Cn1cc(CN(Cc2ccccc2)[C@@H]2CCCN(c3ncnc4sc(CC(F)(F)F)cc34)CC2)cn1 (single isomer, unassigned) [Compound 60A]
24 |  | 295 | 2.4 | Cn1cc(CN(Cc2ccccc2)[C@H]2CCCN(c3ncnc4sc(CC(F)(F)F)cc34)CC2)cn1 (single isomer, unassigned) [Compound 60B]
25 |  | 164 | 3.8 | Cn1cc2c(n1)CCC[C@@H]2N[C@@H]1CCCN(c2ncnc3sc(CC(F)(F)F)cc23)CC1 (single isomer, unassigned) [Compound 66B]
26 |  | 55 | 1.6 | Fc1ccc(CNC2CCCN(c3ncnc4sc(CC(F)(F)F)cc34)CC2)c(F)c1 (centres unmarked) [Compound 7]
27 |  | 36 | 1.4 | Cc1ccc(CNC2CCCN(c3ncnc4sc(CC(F)(F)F)cc34)CC2)c(C)c1 (centres unmarked) [Compound 9]
28 |  | 33 | 1.3 | CNCc1cccc(CNC2CCCN(c3ncnc4sc(CC(F)(F)F)cc34)CC2)c1 (centres unmarked) [Compound 17]
29 |  | 563 | 4.7 | COc1ccc(C)cc1CNC1CCCN(c2ncnc3sc(CC(F)(F)F)cc23)CC1 (centres unmarked) [Compound 18]
30 |  | 41 | 2 | Cc1ccccc1CNC1CCCN(c2ncnc3sc(CC(F)(F)F)cc23)CC1 (centres unmarked) [Compound 19]
31 |  | 53 | 1.2 | Fc1cccc(CNC2CCCN(c3ncnc4sc(CC(F)(F)F)cc34)CC2)c1 (centres unmarked) [Compound 24]
32 |  | 45 | 1.1 | CNC(=O)c1ccc(CNC2CCCN(c3ncnc4sc(CC(F)(F)F)cc34)CC2)cc1 (centres unmarked) [Compound 49]
